In patent US20020128320A1, “Method of administering calcium citrate” (UniServices Ltd., priority 2001, published 2002):
Entries after “also recorded” stand apart in the source; their conditions may differ. Where two headings read alike, the source gives them in different places.

Assays:
[1] = 13 men, cited from earlier work
[2] = 193 subjects; cited from earlier work
[3] = 6 weeks; 56 subjects; cited from earlier work
[4] = Randomized placebo-controlled trial of calcium citrate: fasting serum lipids; assay type: in vivo, normal postmenopausal women
Description: (§1) A randomized controlled trial of calcium supplementation in 223 normal postmenopausal women aged 55 years or older. Women receiving therapy for osteoporosis were ineligible, as were those with any other major ongoing disease, including serum creatine greater than 0.2 mmol/L, untreated hypo- or hyperthyroidism, liver disease, serum 25-hydroxyvitamin D less than 10 μg/L, malignancy or metabolic bone disease. None of the subjects had been regular users of hormone replacement therapy, anabolic steroids, glucocorticoids or bisphosphonates in the previous 1 year. Lumbar spine bone density (Lunar Expert, Madison, Wis.) was not below the age-appropriate normal range. In the present sub-study there was the further requirement that subjects were not receiving therapy for hyperlipidemia.
266 subjects were assessed for eligibility for the sub-study, and 223 entered the study, of which 111 women were randomized to calcium and 112 to placebo. 20 women in the calcium group discontinued study medication as did 26 in the placebo group. […] The study was approved by the local ethics committee, and each subject gave written, informed consent. There were not significant differences between groups.
Treatments were allocated randomly using a minimization algorithm balancing for current thiazide use, age and the occurrence of fractures resulting from minimal trauma after the age of 40 years. Subjects received 1 gram of elemental calcium daily as the citrate (Citracal, Mission Pharmacal, San Antonio Tex.) or identical placebo. They were asked to take two tablets (each containing 200 mg elemental calcium) before breakfast and three tablets in the evening. Calcium intake and physical activity were assessed using validated questionnaires (Angus et al., 1989; Wilson et al., 1986). Compliance was assessed by tablet counts.
Fasting total cholesterol, high-density lipoprotein cholesterol and triglycerides were measured in serum at baseline, 2 months, 6 months, and one year, using a Roche-Hitachi 747 autoanalyzer (Mannherim, Germany). The cholesterol assay used cholesterol oxidase, high-density lipoprotein measurement was by a direct non-precipitation method using PEG-modified enzymes (cholesterol oxidase), and triglycerides were assayed using a glycerol kinase/oxidase method after initial hydrolysis using lipoprotein lipase. Low-density lipoprotein was calculated using the Friedewald formula:
LDL=TC−HDL−(0.45×triglyceride)
Data were analyzed on an intention-to-treat basis, using a fixed effects mixed models approach to repeated measures using the MIXED procedure of SAS (SAS Institute, Cary, N.C.). Significant main and interaction effects were explained using the method of Tukey. In complimentary analyses, the change from baseline for each continuous normal dependant variable was compared between treatment and placebo arms using Student's t-test for independent groups. A 5% significance level was maintained throughout these analyses.

[5] = Randomized placebo-controlled trial of calcium citrate: body weight; assay type: in vivo, normal postmenopausal women
Description: as §1, with “In the present sub-study there was the further requirement that subjects were not receiving therapy for hyperlipidemia.” left out
266 subjects were assessed for eligibility for the sub-study, and 223 entered the study, of which 111 women were randomized to calcium and 112 to placebo. […]
Treatments were allocated randomly using a minimization algorithm balancing for current thiazide use, age and the occurrence of fractures resulting from minimal trauma after the age of 40 years. […] Calcium intake and physical activity were assessed using validated questionnaires (Angus et al., 1989; Wilson et al., 1986). Compliance was assessed by tablet counts.
Data were analyzed on an intention-to-treat basis, using a fixed effects mixed models approach to repeated measures using the MIXED procedure of SAS (SAS Institute, Cary, N.C.). […]

[6] = intention-to-treat analysis, 12 months, 1 g elemental calcium daily

Compound: calcium citrate malate
- increase in saturated fat excretion ([1]; food and tablets): 7%
- low-density lipoprotein levels decrease ([1]; food and tablets): 11%
- reduction in plasma cholesterol ([1]; food and tablets): 6%
- high-density lipoprotein levels change ([1]; increased in some subjects and decreased in others): insignificant

Compound: O=C([O-])[O-].[Ca+2] [calcium carbonate]
- changes in total cholesterol, high-density lipoprotein level, and blood pressure [2]: statistically insignificant changes
- change in total cholesterol [3]: statistically insignificant decrease

Compound: O=C([O-])CC(O)(CC(=O)[O-])C(=O)[O-].O=C([O-])CC(O)(CC(=O)[O-])C(=O)[O-].[Ca+2].[Ca+2].[Ca+2] [calcium citrate]
- high-density lipoprotein/low-density lipoprotein ratio increase (summary statement) ([4]; daily dose about 1 gram elemental calcium): ~20%
- predicted reduction of cardiovascular event rates ([4]; extrapolated from lipid effects by comparison with statin trial data): 20-30%
- high-density lipoprotein/low-density lipoprotein ratio increase [4, 6]: 17.7%
- total cholesterol fall (non-significant) [4, 6]: 3.7%
- high-density lipoprotein increase above baseline ([4]; intention-to-treat analysis, 12 months, 1 g elemental calcium daily, oral): 7.3%
- low-density lipoprotein decline ([4]; intention-to-treat analysis, 12 months, 1 g elemental calcium daily, LDL calculated by Friedewald formula): 7.8%
- ratio of total cholesterol/high-density lipoprotein decline ([4]; intention-to-treat analysis, one year, 1 g elemental calcium daily): 9.3%
- treatment effect on triglycerides ([4]; intention-to-treat analysis, versus placebo (P=0.48)): no significant treatment effect
- change in high-density lipoprotein cholesterol versus placebo ([4]; protocol analysis excluding statin/fibrate users, FIG. 1A, P=0.05): increase in high-density lipoprotein; also recorded: significant treatment effects
- change in low-density lipoprotein cholesterol versus placebo ([4]; protocol analysis excluding statin/fibrate users, FIG. 1B, P=0.04): declined; also recorded: significant treatment effects
- change in total cholesterol ([4]; protocol analysis excluding statin/fibrate users, FIG. 2A): did not change significantly
- treatment effect on triglycerides ([4]; protocol analysis excluding statin/fibrate users, FIG. 3): no significant treatment effect
- total cholesterol/high-density lipoprotein ratio decrease ([4]; protocol analysis excluding subjects who commenced a statin or fibrate): 9.6%
- high-density lipoprotein/low-density lipoprotein ratio increase ([4]; protocol analysis excluding subjects who commenced a statin or fibrate, FIG. 2B): 17%
- body weight decrease (mean ±SE) ([5]; intention-to-treat analysis, 1 g elemental calcium daily): 289 ± 193 g
- between-groups effect on body weight ([5]; versus placebo (P=0.54)): no between-groups effect on body weight
